In patent US20260183411A1, “TARGETING SORTILIN” (priority 2024, published 2026):
Where two headings read alike, the source gives them in different places. Where a SMILES comes first, the peptide text is derived from it. [ ]: non-standard residue; d: D form. The star is where a group is joined. Dolaproine = CO[C@@H]([C@@H]1CCCN1)[C@@H](C)C(=O)O; Dil = CC[C@H](C)[C@H](NC)[C@@H](CC(=O)O)OC; X1 = C[C@@H](N*)[C@@H](O)c1ccccc1; NMeV = CN[C@H](C(=O)O)C(C)C

Assays:
[1] = Murine serum stability assay; assay type: in vitro ADME, mouse; conditions: read-out: Murine serum stability assay, T1/2
Protocol: Serum was drawn from male CD-1 mice by Pharmidex. Lyophilized peptides were solubilized in DMSO and then further diluted into male mouse (CD-1) serum at 37° C. in duplicates. The reaction was incubated at 37° C. and samples extracted at 6 time points: 0, 0.16, 0.5, 1, 3, and 6 hrs. Acetonitrile (ACN) with an internal standard (tolbutamide) was added to stop the incubation. Samples were centrifuged, and the supernatant was analyzed by HPLC-MS/MS for the parent compound.

MDA-MB-231 xenograft = assay: MDA-MB-231 murine xenograft efficacy model; assay type: in vivo, mouse
Protocol: Murine xenograft experiments were conducted at WuXi AppTec and/or Charles River Laboratories and the care and use of animals was conducted in accordance with the regulations of the Association for Assessment and Accreditation of Laboratory Animal Care (AAALAC). MDA-MB-231 tumor cells (ATCC, Manassas, VA, cat #HTB-26) were grown and maintained in L15 medium supplemented with 10% heat inactivated fetal bovine serum, 1% Antibiotic-Antimycotic, and L-glutamine (2 mM) at 37° C. in an atmosphere in 5% CO2, 95% air. BALB/c Nude, female, 6-8 weeks, weighing approximately 18-22 g were purchased from Vital River Laboratory Animal Technology Co., LTD. Mice were inoculated subcutaneously at the right flank with MDA-MB-231 tumor cells (e.g., triple negative breast cancer cells) (10×10^6) in 0.2 mL of PBS with Matrigel (1:1) for tumor development. Animals were randomized and treatment was started when the average tumor volume reached approximately 150-200 mm^3 for the efficacy study. Dosing volume was adjusted based on body weight and was administered at 10 mL/Kg. […] Free MMAE payload was also tested, and similarly dissolved in 25 mM Histidine 10% sucrose pH 7 and one or more of the following doses, 0.6, 0.06 mg/kg, were administered to the mice i.v. at a QW×4 schedule. Tumor sizes were measured twice weekly in two dimensions using a caliper, and the volume in mm^3 calculated using the formula: V=0.5 a×b^2, where a and b are the long and short diameters of the tumor, respectively. TGI was calculated for each group using the formula: TGI (%)=[1−(Ti−T0)/(Vi−V0)]×100; where Ti is the average tumor volume of a treatment group on a given day, TO is the average tumor volume of the treatment group on the first day of treatment, Vi is the average tumor volume of the vehicle control group on the same day with Ti, and V0 is the average tumor volume of the vehicle group on the first day of treatment.
To characterize the effects of the MMAE payload alone, we included free MMAE at molar equivalency to PDCs, and tested at 0.6 and 0.06 mg/kg, as separate arms.
To characterize the effects of the MMAE payload alone, we included free MMAE at molar equivalency to PDCs, and tested at 0.6 mg/kg.

[2] = male, CD-1, mouse, mouse serum, cyclic peptides, Table 12
[3] = male, CD-1, mouse, mouse serum, linear peptides, Table 11
[4] = mouse, serum, linear peptides, Table 11
[5] = mouse, serum, cyclic peptides, Table 12

## CCCC[C@@H]1NC(=O)[C@H](CCCNC(=N)N)NC(=O)[C@H](CCCNC(=N)N)NC(=O)[C@H](CC(N)=O)NC(=O)[C@H](CCC(=O)O)NC(=O)[C@@H](NC(=O)[C@H](Cc2c[nH]c3ccccc23)NC(=O)[C@H](CCCNC(=N)N)NC(C)=O)CSSC[C@@H](C(=O)N[C@@H](CCCNC(=N)N)C(=O)N[C@@H](CCC(N)=O)C(=O)N[C@H](C(=O)N[C@@H](CC(C)(C)C)C(=O)O)C(C)(C)C)NC(=O)[C@H]([C@@H](C)O)NC(=O)[C@H](Cc2ccccc2)NC1=O [Arb_cyclic_G23, RWCENRR(Nle)FTCRQ(B13)(F02)]
[1]; [2]
  half-life: 39.1 min

## CC(C)CC[C@H](NC(=O)[C@H](CCC(N)=O)NC(=O)[C@H](CCCNC(=N)N)NC(=O)[C@H](CC(C)C)NC(=O)[C@H](C)NC(=O)[C@@H]1CCCN1C(=O)[C@H](CC(=O)O)NC(=O)[C@H](CCCNC(=N)N)NC(=O)[C@H](CC(C)C)NC(=O)[C@@H]1CCCN1C(=O)[C@H](C)NC(=O)[C@H](CC(=O)O)NC(=O)[C@H](Cc1c[nH]c2ccccc12)NC(=O)[C@H](CCCNC(=N)N)NC(=O)[C@@H]1CCCN1C(=O)[C@H](C)N)C(=O)N[C@@H](CC(C)(C)C)C(=O)O [Arb-SAR-P17]
[1]; [3]
  half-life: 12.1 min

## CC(=O)N[C@@H](CCCNC(=N)N)C(=O)N[C@@H](CC(=O)O)C(=O)N[C@H]1CSSC[C@@H](C(=O)N[C@@H](CCCNC(=N)N)C(=O)N[C@@H](CCC(N)=O)C(=O)N[C@H](C(=O)N[C@@H](CC(C)(C)C)C(=O)O)C(C)(C)C)NC(=O)[C@@H]2CCCN2C(=O)[C@@H]2CCCN2C(=O)[C@H](C)NC(=O)[C@H](CCCNC(=N)N)NC(=O)[C@H](CC(C)C)NC(=O)[C@H](CO)NC(=O)[C@H](C)NC1=O [Arb_cyclic_G2]
[1]; [2]
  half-life: 30.8 min

## CC(C)C[C@H](NC(=O)[C@H](C)NC(=O)[C@@H]1CCCN1C(=O)[C@H](CC(=O)O)NC(=O)[C@H](CCCNC(=N)N)NC(=O)[C@H](CC(C)C)NC(=O)[C@@H]1CCCN1C(=O)[C@H](C)NC(=O)[C@H](CC(=O)O)NC(=O)[C@H](Cc1c[nH]c2ccccc12)NC(=O)[C@H](CCCNC(=N)N)NC(=O)[C@@H]1CCCN1C(=O)[C@H](C)N)C(=O)N[C@@H](CCCNC(=N)N)C(=O)N[C@@H](CCC(N)=O)C(=O)N[C@@H](CC(C)(C)C)C(=O)N[C@@H](CC(C)(C)C)C(=O)O [Arb-SAR-P22]
[1]; [4]
  half-life: 9.95 min

## CCCC[C@@H]1NC(=O)[C@@H](NC(=O)[C@H](CCC(N)=O)NC(=O)[C@H](C)NC(C)=O)CSSC[C@@H](C(=O)N[C@@H](CCCNC(=N)N)C(=O)N[C@@H](CCC(N)=O)C(=O)N[C@H](C(=O)N[C@@H](CC(C)(C)C)C(=O)O)C(C)(C)C)NC(=O)[C@H](C)NC(=O)[C@H](CCCNC(=N)N)NC(=O)[C@H](CC(N)=O)NC(=O)[C@H](CCCNC(=N)N)NC(=O)CNC1=O [Arb_cyclic_C5]
[1]; [2]
  half-life: 46.1 min

## CC(C)CC[C@H](NC(=O)[C@H](CCC(N)=O)NC(=O)[C@H](CCCNC(=N)N)NC(=O)[C@H](CC(C)C)NC(=O)[C@H](C)NC(=O)[C@@H]1CCCN1C(=O)[C@H](CC(=O)O)NC(=O)[C@H](CCCNC(=N)N)NC(=O)[C@H](CC(C)C)NC(=O)[C@@H]1CCCN1C(=O)[C@H](C)NC(=O)[C@H](CC(=O)O)NC(=O)[C@H](Cc1c[nH]c2ccccc12)NC(=O)[C@H](CCCNC(=N)N)NC(=O)[C@@H]1CCCN1C(=O)[C@H](C)N)C(=O)N[C@@H](CC1CCC1)C(=O)O [Arb-SAR-Q09]
[1]; [4]
  half-life: 11.5 min

## CCCC[C@@H]1NC(=O)[C@H](CCCNC(=N)N)NC(=O)[C@H](CCCNC(=N)N)NC(=O)[C@H]([C@@H](C)O)NC(=O)[C@H]([C@@H](C)O)NC(=O)[C@@H](NC(=O)[C@H](CO)NC(=O)[C@H](CCCNC(=N)N)NC(C)=O)CSSC[C@@H](C(=O)N[C@@H](CCCNC(=N)N)C(=O)N[C@@H](CCC(N)=O)C(=O)N[C@H](C(=O)N[C@@H](CC(C)(C)C)C(=O)O)C(C)(C)C)NC(=O)[C@H]([C@@H](C)O)NC(=O)[C@H](C)NC1=O [Arb_cyclic_G14, RSCTTRR(Nle)ATCRQ(B13)(F02)] (HELM PEPTIDE1{[ac].R.S.C.T.T.R.R.[Nle].A.T.C.R.Q.[CC(C)(C)[C@H](N[*:1])C(=O)[*:2]].[CC(C)(C)C[C@H](N[*:1])C(=O)O]}$PEPTIDE1,PEPTIDE1,4:R3-12:R3$$$V2.0)
[1]; [5]
  half-life: 50.3 min

## CC[C@H](C)[C@@H]([C@@H](CC(=O)N1CCC[C@H]1[C@H](OC)[C@@H](C)C(=O)N[C@H](C)[C@@H](O)c1ccccc1)OC)N(C)C(=O)[C@@H](NC(=O)[C@@H](NC)C(C)C)C(C)C [Free MMAE, Monomethyl auristatin E, reference compound] (H-[NMeV]V[Dil][Dolaproine]-X1; N-terminus and C-terminus assumed)
MDA-MB-231 xenograft; PDC at each dose, free MMAE at equivalency to 3 mg/kg PDC
  body weight variation (Example 6): body weight fluctuations corresponding to treatment times
MDA-MB-231 xenograft; PDCs 3 mg/kg, free MMAE at molar equivalency (0.6 mg/kg)
  body weight loss (Example 8): body weight fluctuations corresponding to treatment times

## CC(=O)N[C@@H](Cc1c[nH]cn1)C(=O)N[C@@H](CC(N)=O)C(=O)N[C@@H](Cc1ccccc1)C(=O)N[C@@H](Cc1ccc(O)cc1)C(=O)N[C@H]1CSSC[C@@H](C(=O)N[C@@H](CCC(N)=O)C(=O)N[C@@H](CCCNC(=N)N)C(=O)N[C@@H](CCC(N)=O)C(=O)N[C@H](C(=O)N[C@@H](CC(C)(C)C)C(=O)O)C(C)(C)C)NC(=O)[C@H](Cc2c[nH]cn2)NC(=O)[C@H](CCCCN)NC(=O)[C@H](CCCNC(=N)N)NC1=O [Arb_cyclic_C22]
[1]; [5]
  half-life: 58.3 min

## CC(C)C[C@H](NC(=O)[C@H](C)NC(=O)[C@@H]1CCCN1C(=O)[C@H](CC(=O)O)NC(=O)[C@H](CCCNC(=N)N)NC(=O)[C@H](CC(C)C)NC(=O)[C@@H]1CCCN1C(=O)[C@H](C)NC(=O)[C@H](CC(=O)O)NC(=O)[C@H](Cc1c[nH]c2ccccc12)NC(=O)[C@H](CCCNC(=N)N)NC(=O)[C@@H]1CCCN1C(=O)[C@H](C)N)C(=O)N[C@@H](CCCNC(=N)N)C(=O)N[C@@H](CCC(N)=O)C(=O)N[C@H](C(=O)N[C@@H](CC1CCC1)C(=O)O)C(C)(C)C [Arb-SAR-Q15]
[1]; [3]
  half-life: 16.9 min

## CC(C)C[C@H](NC(=O)[C@H](C)NC(=O)[C@@H]1CCCN1C(=O)[C@H](CC(=O)O)NC(=O)[C@H](CCCNC(=N)N)NC(=O)[C@H](CC(C)C)NC(=O)[C@@H]1CCCN1C(=O)[C@H](C)NC(=O)[C@H](CC(=O)O)NC(=O)[C@H](Cc1c[nH]c2ccccc12)NC(=O)[C@H](CCCNC(=N)N)NC(=O)[C@@H]1CCCN1C(=O)[C@H](C)N)C(=O)N[C@@H](CCCNC(=N)N)C(=O)N[C@@H](CCC(N)=O)C(=O)N[C@@H](CC1CCC1)C(=O)N[C@@H](CC(C)(C)C)C(=O)O [Arb-SAR-P24]
[1]; [3]
  half-life: 10.1 min

## CCCC[C@H](NC(=O)[C@H](CCCNC(=N)N)NC(C)=O)C(=O)N[C@H]1CSSC[C@@H](C(=O)N[C@@H](CCCNC(=N)N)C(=O)N[C@@H](CCC(N)=O)C(=O)N[C@H](C(=O)N[C@@H](CC(C)(C)C)C(=O)O)C(C)(C)C)NC(=O)[C@H](C)NC(=O)[C@@H]2CCCN2C(=O)[C@H](CO)NC(=O)[C@H](CCCNC(=N)N)NC(=O)[C@H]([C@@H](C)CC)NC(=O)[C@@H]2CCCN2C(=O)CNC1=O [Arb_cyclic_G10]
[1]; [5]
  half-life: 11.2 min

## CC(=O)N[C@@H](CCC(=O)O)C(=O)N[C@@H](Cc1c[nH]c2ccccc12)C(=O)N[C@H]1CSSC[C@@H](C(=O)N[C@@H](CCCNC(=N)N)C(=O)N[C@@H](CCC(N)=O)C(=O)N[C@H](C(=O)N[C@@H](CC(C)(C)C)C(=O)O)C(C)(C)C)NC(=O)[C@H]([C@@H](C)O)NC(=O)[C@@H]2CCCN2C(=O)[C@H](Cc2c[nH]cn2)NC(=O)[C@H](CC(N)=O)NC(=O)[C@H](Cc2c[nH]cn2)NC(=O)[C@H](CC(C)C)NC(=O)CNC1=O [Arb_cyclic_F3]
[1]; [2]
  half-life: 173 min
